{"source": "patent US10167293B2", "about": "“[8-(phenylsulfonyl)-3,8-diazabicyclo[3.2.1]oct-3-yl](1H-1,2,3-triazol-4-yl)methanones” (BAYER PHARMA AKTIENGESELLSCHAFT, priority 2016, dated 2019)", "data": [{"biological_target": "recombinant human AKR1C3 (Homo sapiens (Human), UniProt P42330)", "sequence (P42330 whole entry)": "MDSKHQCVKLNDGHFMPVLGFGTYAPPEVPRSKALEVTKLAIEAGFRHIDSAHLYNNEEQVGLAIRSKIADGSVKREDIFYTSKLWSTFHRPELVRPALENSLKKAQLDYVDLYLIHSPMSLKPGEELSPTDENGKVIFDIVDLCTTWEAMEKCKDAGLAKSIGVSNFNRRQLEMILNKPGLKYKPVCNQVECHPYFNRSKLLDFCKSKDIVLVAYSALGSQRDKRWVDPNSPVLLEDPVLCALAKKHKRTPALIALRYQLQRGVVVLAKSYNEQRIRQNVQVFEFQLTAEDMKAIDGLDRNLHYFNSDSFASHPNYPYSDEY", "experiment": "AKR1C3-inhibitory activity assay (Coumberone to Coumberol fluorescence)", "type": "biochemical", "details": "recombinant human AKR1C3, 15 min pre-incubation, 10 μM NADPH, 0.3 μM Coumberone", "protocol": "The AKR1C3-inhibitory activity of the substances of the present invention was measured in the AKR1C3 assay described in the paragraphs below.\nEssentially, the enzyme activity is measured by quantification of the generation of Coumberol from Coumberone (Halim et al. J. AM. CHEM. SOC. 2008, 130:14123-14128 and Yee et al. Proc. Natl. Acad. Sci. USA 2006, 103:13304-13309). In this test, the increase of the highly fluorescent Coumberol by NADPH—(nicotinamide adenine dinucleotide phosphate)-dependent reduction of the non-fluorescent Coumberone by AKR1C3 was determined.\nThe enzyme used was recombinant human AKR1C3 (Aldo-keto reductase family 1 member C3; GenBank Accession No. NM_003739). This was expressed in E. coli as GST (glutathione S transferase) fusion protein and purified by glutathione Sepharose affinity chromatography. The GST was removed by digestion with thrombin and subsequent size exclusion chromatography (Dufort, I., Rheault, P., Huang, X F., Soucy, P., and Luu-The, V., Endocrinology 140, 568-574 (1999)).\nFor the assay, 50 nl of a 100-fold concentrated solution of the test substance in DMSO were pipetted into a black low-volume 384-well microtiter plate (Greiner Bio-One, Frickenhausen, Germany), 2.5 μl of a solution of AKR1C3 in assay buffer [50 mM potassium phosphate buffer pH 7, 1 mM DTT, 0.0022% (w/v) Pluronic F-127, 0.01% BSA (w/v) and protease inhibitor cocktail (Complete, EDTA-free Protease Inhibitor Cocktail from Roche)] were added and the mixture was incubated for 15 min to allow pre-binding of the substances to the enzyme prior to the enzyme reaction. The enzyme reaction was then started by addition of 2.5 μl of a solution of NADPH (20 μM→final concentration in 5 μl of assay volume is 10 μM) and Coumberone (0.6 μM→final concentration in 5 μl of assay volume is 0.3 μM) in assay buffer, and the resulting mixture was incubated at 22° C. for the reaction time of typically 90 min. The concentration of the AKR1C3 and the reaction time was adapted to the respective activity of the enzyme preparation and adjusted such that the assay was carried out in the linear range. Typical AKR1C3 concentrations were in the region of 1 nM. The reaction was stopped by addition of 2.5 μl of a stop solution consisting of 3 μM EM-1404 as inhibitor (U.S. Pat. No. 6,541,463) in 50 mM HEPES pH7.5 (3 μM EM-1404→final concentration in 7.5 μl of assay volume is 1 μM). The fluorescence of the Coumberole was then measured at 520 nm (excitation at 380 nm) using a suitable measuring instrument (Pherastar from BMG Labtechnologies). The intensity of the fluorescence was used as a measure of the amount of Coumberole formed and thus of the enzyme activity of AKR1C3. The data were normalized (enzyme reaction without inhibitor=0% inhibition; all other assay components, but no enzyme=100% inhibition).", "units": {"IC50": "nM"}, "values": [{"smiles": "Cc1cc(C)c(S(=O)(=O)N2C3CCC2CN(C(=O)c2cnn[nH]2)C3)c(C)c1", "note": "[Example 45, 1H-1,2,3-triazol-5-yl{8-[(2,4,6-trimethylphenyl)sulfonyl]-3,8-diazabicyclo[3.2.1]oct-3-yl}methanone]", "IC50": 1.4}, {"smiles": "O=C(c1cnn[nH]1)N1CC2CCC(C1)N2S(=O)(=O)c1cc(F)cc(F)c1", "note": "[Example 75, sodium 5-({8-[(3,5-difluorophenyl)sulfonyl]-3,8-diazabicyclo[3.2.1]oct-3-yl}carbonyl)-1,2,3-triazol-1-ide]", "IC50": 0.7}, {"smiles": "Cc1cccc(S(=O)(=O)N2C3CCC2CN(C(=O)c2cnn[nH]2)C3)c1", "note": "[Example 13, {8-[(3-methylphenyl)sulfonyl]-3,8-diazabicyclo[3.2.1]oct-3-yl}(1H-1,2,3-triazol-5-yl)methanone]", "IC50": 1.4}, {"smiles": "O=C(c1cnn[nH]1)N1CC2CCC(C1)N2S(=O)(=O)c1cccc2nsnc12", "note": "[Example 54, [8-(2,1,3-benzothiadiazol-4-ylsulfonyl)-3,8-diazabicyclo[3.2.1]oct-3-yl](1H-1,2,3-triazol-5-yl)methanone]", "IC50": 1.2}, {"smiles": "N#Cc1ccccc1S(=O)(=O)N1C2CCC1CN(C(=O)c1cnn[nH]1)C2", "note": "[Example 35, 2-{[3-(1H-1,2,3-triazol-5-ylcarbonyl)-3,8-diazabicyclo[3.2.1]oct-8-yl]sulfonyl}benzonitrile]", "IC50": 6}, {"smiles": "N#Cc1c(Cl)cccc1S(=O)(=O)N1C2CCC1CN(C(=O)c1cnn[nH]1)C2", "note": "[Example 68, 2-chloro-6-{[3-(1H-1,2,3-triazol-5-ylcarbonyl)-3,8-diazabicyclo[3.2.1]oct-8-yl]sulfonyl}benzonitrile]", "IC50": 1.3}, {"smiles": "O=C(c1cnn[nH]1)N1CC2CCC(C1)N2S(=O)(=O)c1cc(Cl)ccc1F", "note": "[Example 61, {8-[(5-chloro-2-fluorophenyl)sulfonyl]-3,8-diazabicyclo[3.2.1]oct-3-yl}(1H-1,2,3-triazol-5-yl)methanone]", "IC50": 1.5}, {"smiles": "CCc1ccc(S(=O)(=O)N2C3CCC2CN(C(=O)c2cnn[nH]2)C3)cc1", "note": "[Example 49, {8-[(4-ethylphenyl)sulfonyl]-3,8-diazabicyclo[3.2.1]oct-3-yl}(1H-1,2,3-triazol-5-yl)methanone]", "IC50": 1.2}, {"smiles": "O=C(c1cnn[nH]1)N1CC2CCC(C1)N2S(=O)(=O)c1ccc(OC(F)(F)F)cc1", "note": "[Example 41, 1H-1,2,3-triazol-5-yl[8-{[4-(trifluoromethoxy)phenyl]sulfonyl}-3,8-diazabicyclo[3.2.1]oct-3-yl]methanone]", "IC50": 6.5}, {"smiles": "COc1ccc(Cl)cc1S(=O)(=O)N1C2CCC1CN(C(=O)c1cnn[nH]1)C2", "note": "[Example 57, {8-[(5-chloro-2-methoxyphenyl)sulfonyl]-3,8-diazabicyclo[3.2.1]oct-3-yl}(1H-1,2,3-triazol-5-yl)methanone]", "IC50": 9.7}, {"smiles": "N#Cc1cc(S(=O)(=O)N2C3CCC2CN(C(=O)c2cnn[nH]2)C3)ccc1F", "note": "[Example 60, 2-fluoro-5-{[3-(1H-1,2,3-triazol-5-ylcarbonyl)-3,8-diazabicyclo[3.2.1]oct-8-yl]sulfonyl}benzonitrile]", "IC50": 28.4}, {"smiles": "O=C(c1cnn[nH]1)N1CC2CCC(C1)N2S(=O)(=O)c1c(Cl)cc(Cl)cc1Cl", "note": "[Example 56, 1H-1,2,3-triazol-5-yl{8-[(2,4,6-trichlorophenyl)sulfonyl]-3,8-diazabicyclo[3.2.1]oct-3-yl}methanone]", "IC50": 1.4}, {"smiles": "COc1cccc(S(=O)(=O)N2C3CCC2CN(C(=O)c2cnn[nH]2)C3)c1", "note": "[Example 20, {8-[(3-methoxyphenyl)sulfonyl]-3,8-diazabicyclo[3.2.1]oct-3-yl}(1H-1,2,3-triazol-5-yl)methanone]", "IC50": 1}, {"smiles": "O=C(c1c[nH]nn1)N1CC2CCC(C1)N2S(=O)(=O)c1cccc(S(F)(F)(F)(F)F)c1", "note": "[Example 8, [8-{[3-(pentafluoro-lambda^6-sulfanyl)phenyl]sulfonyl}-3,8-diazabicyclo[3.2.1]oct-3-yl](1H-1,2,3-triazol-4-yl)methanone]", "IC50": 1.3}, {"smiles": "O=C(c1c[nH]nn1)N1CC2CCC(C1)N2S(=O)(=O)c1cc(Cl)cc(Cl)c1", "note": "[Example 9, {8-[(3,5-dichlorophenyl)sulfonyl]-3,8-diazabicyclo[3.2.1]oct-3-yl}(1H-1,2,3-triazol-4-yl)methanone]", "IC50": 0.9}, {"smiles": "O=C(c1cnn[nH]1)N1CC2CCC(C1)N2S(=O)(=O)c1cc(Cl)ccc1Cl", "note": "[Example 30, {8-[(2,5-dichlorophenyl)sulfonyl]-3,8-diazabicyclo[3.2.1]oct-3-yl}(1H-1,2,3-triazol-5-yl)methanone]", "IC50": 0.6}, {"smiles": "O=C(c1c[nH]nn1)N1CC2CCC(C1)N2S(=O)(=O)c1ccccc1C(F)(F)F", "note": "[Example 2, 1H-1,2,3-triazol-4-yl[8-{[2-(trifluoromethyl)phenyl]sulfonyl}-3,8-diazabicyclo[3.2.1]oct-3-yl]methanone]", "IC50": 1}, {"smiles": "Cc1ccc(S(=O)(=O)N2C3CCC2CN(C(=O)c2cnn[nH]2)C3)cc1", "note": "[Example 14, {8-[(4-methylphenyl)sulfonyl]-3,8-diazabicyclo[3.2.1]oct-3-yl}(1H-1,2,3-triazol-5-yl)methanone]", "IC50": 1.9}, {"smiles": "O=C(c1cnn[nH]1)N1CC2CCC(C1)N2S(=O)(=O)c1cccc(OC(F)(F)F)c1", "note": "[Example 33, 1H-1,2,3-triazol-5-yl[8-{[3-(trifluoromethoxy)phenyl]sulfonyl}-3,8-diazabicyclo[3.2.1]oct-3-yl]methanone]", "IC50": 1.8}, {"smiles": "COc1ccc(OC)c(S(=O)(=O)N2C3CCC2CN(C(=O)c2cnn[nH]2)C3)c1", "note": "[Example 47, {8-[(2,5-dimethoxyphenyl)sulfonyl]-3,8-diazabicyclo[3.2.1]oct-3-yl}(1H-1,2,3-triazol-5-yl)methanone]", "IC50": 29.8}, {"smiles": "Cc1ccc(C)c(S(=O)(=O)N2C3CCC2CN(C(=O)c2cnn[nH]2)C3)c1", "note": "[Example 19, {8-[(2,5-dimethylphenyl)sulfonyl]-3,8-diazabicyclo[3.2.1]oct-3-yl}(1H-1,2,3-triazol-5-yl)methanone]", "IC50": 1.1}, {"smiles": "O=C(c1cnn[nH]1)N1CC2CCC(C1)N2S(=O)(=O)c1ccccc1OC(F)(F)F", "note": "[Example 42, 1H-1,2,3-triazol-5-yl[8-{[2-(trifluoromethoxy)phenyl]sulfonyl}-3,8-diazabicyclo[3.2.1]oct-3-yl]methanone]", "IC50": 1.1}, {"smiles": "O=C(c1cnn[nH]1)N1CC2CCC(C1)N2S(=O)(=O)c1ccc(F)cc1F", "note": "[Example 25, {8-[(2,4-difluorophenyl)sulfonyl]-3,8-diazabicyclo[3.2.1]oct-3-yl}(1H-1,2,3-triazol-5-yl)methanone]", "IC50": 2.6}, {"smiles": "Cc1ccc(Cl)cc1S(=O)(=O)N1C2CCC1CN(C(=O)c1cnn[nH]1)C2", "note": "[Example 63, {8-[(5-chloro-2-methylphenyl)sulfonyl]-3,8-diazabicyclo[3.2.1]oct-3-yl}(1H-1,2,3-triazol-5-yl)methanone]", "IC50": 1.7}, {"smiles": "O=C(c1cnn[nH]1)N1CC2CCC(C1)N2S(=O)(=O)c1cccc2nonc12", "note": "[Example 55, [8-(2,1,3-benzoxadiazol-4-ylsulfonyl)-3,8-diazabicyclo[3.2.1]oct-3-yl](1H-1,2,3-triazol-5-yl)methanone]", "IC50": 2.7}, {"smiles": "O=C(c1cnn[nH]1)N1CC2CCC(C1)N2S(=O)(=O)c1cc(Cl)ccc1C(F)(F)F", "note": "[Example 34, [8-{[5-chloro-2-(trifluoromethyl)phenyl]sulfonyl}-3,8-diazabicyclo[3.2.1]oct-3-yl](1H-1,2,3-triazol-5-yl)methanone]", "IC50": 1.9}, {"smiles": "O=C(c1cnn[nH]1)N1CC2CCC(C1)N2S(=O)(=O)c1cccc(C(F)(F)F)c1", "note": "[Example 29, 1H-1,2,3-triazol-5-yl[8-{[3-(trifluoromethyl)phenyl]sulfonyl}-3,8-diazabicyclo[3.2.1]oct-3-yl]methanone]", "IC50": 0.9}, {"smiles": "O=C(c1cnn[nH]1)N1CC2CCC(C1)N2S(=O)(=O)c1ccc(F)cc1", "note": "[Example 16, {8-[(4-fluorophenyl)sulfonyl]-3,8-diazabicyclo[3.2.1]oct-3-yl}(1H-1,2,3-triazol-5-yl)methanone]", "IC50": 2.2}, {"smiles": "O=C(c1cnn[nH]1)N1CC2CCC(C1)N2S(=O)(=O)c1ccc([N+](=O)[O-])cc1", "note": "[Example 43, {8-[(4-nitrophenyl)sulfonyl]-3,8-diazabicyclo[3.2.1]oct-3-yl}(1H-1,2,3-triazol-5-yl)methanone]", "IC50": 9.1}]}]}
